According to patent US20230263822A1, “MODULATION OF FACTOR 11 EXPRESSION” (Ionis Pharmaceuticals, Inc., priority 2008, published 2023):
Strand notation (5' to 3'): a small letter for the sugar, then the base; units joined by * are phosphorothioate-linked, units joined directly phosphodiester-linked; [ ] holds rarer units or linkages, { } end groups; capitals alone tell only the bases. e = 2'-O-(2-methoxyethyl) (MOE); [5mC] = 5-methylcytosine; d = 2'-deoxy (DNA)

system: human Factor 11 mRNA; test: Antisense inhibition of human Factor 11 in HepG2 cells, lipofectin, 75 nM (Example 1); type: cell-based; conditions: 75 nM antisense oligonucleotide, ~24 h, relative to untreated control cells, gapmers targeted to SEQ ID NO: 1
Protocol: Antisense oligonucleotides targeted to a Factor 11 nucleic acid were tested for their effects on Factor 11 mRNA in vitro. Cultured HepG2 cells at a density of 10,000 cells per well were transfected using lipofectin reagent with 75 nM antisense oligonucleotide. After a treatment period of approximately 24 hours, RNA was isolated from the cells and Factor 11 mRNA levels were measured by quantitative real time PCR. Factor 11 mRNA levels were adjusted according to total RNA content, as measured by RIBOGREEN. Results are presented as percent inhibition of Factor 11, relative to untreated control cells.
The chimeric antisense oligonucleotides in Tables 1 and 2 were designed as 5-10-5 MOE gapmers. The gapmers are 20 nucleotides in length, wherein the central gap segment is comprised of 10 2′-deoxynucleotides and is flanked on both sides (in the 5′ and 3′ directions) by wings comprising 5 nucleotides each. Each nucleotide in the 5′ wing segment and each nucleotide in the 3′ wing segment has a 2′-MOE modification. The internucleoside linkages throughout each gapmer are phosphorothioate (P=S) linkages. All cytidine residues throughout each gapmer are 5-methylcytidines. “Target start site” indicates the 5′-most nucleotide to which the gapmer is targeted. “Target stop site” indicates the 3′-most nucleotide to which the gapmer is targeted. Each gapmer listed in Table 1 is targeted to SEQ TD NO: 1 (GENBANK Accession No. NM_000128.3) and each gapmer listed in Table 2 is targeted to SEQ TD NO: 2 (GENBANK Accession No. NT_022792.17, truncated from 19598000 to 19624000).

Point of comparison: “412242 (antisense eA*eA*e[5mC]*eA*eA*dG*dG*d[5mC]*dA*dA*dT*dA*dT*d[5mC]*dA*eT*eA*e[5mC]*e[5mC]*e[5mC]) [compound 412242]”, “% inhibition” value 49%. Against it:
- 412228 (antisense eA*eT*eG*eT*eG*dT*dA*dT*d[5mC]*d[5mC]*dA*dG*dA*dG*dA*eT*eG*e[5mC]*e[5mC]*eT) [compound 412228] — higher, 71%
- 412229 (antisense eG*eT*eA*e[5mC]*eA*d[5mC]*dT*d[5mC]*dA*dT*dT*dA*dT*d[5mC]*d[5mC]*eA*eT*eT*eT*eT) [compound 412229] — higher, 64%
- 412230 (antisense eG*eA*eT*eT*eT*dT*dG*dG*dT*dG*dG*dT*dA*d[5mC]*dA*e[5mC]*eT*e[5mC]*eA*eT) [compound 412230] — higher, 52%
- 412231 (antisense eT*e[5mC]*e[5mC]*eT*eG*dG*dG*d[5mC]*dT*dT*dG*dA*dT*dT*dT*eT*eG*eG*eT*eG) [compound 412231] — higher, 74%
- 412232 (antisense eG*eG*e[5mC]*e[5mC]*eA*d[5mC]*dT*d[5mC]*dA*d[5mC]*d[5mC]*dA*d[5mC]*dG*dA*eA*e[5mC]*eA*eG*eA) [compound 412232] — higher, 80%
- 412233 (antisense eT*eG*eT*e[5mC]*eT*d[5mC]*dT*dG*dA*dG*dT*dG*dG*dG*dT*eG*eA*eG*eG*eT) [compound 412233] — higher, 64%
- 412234 (antisense eG*eT*eT*eT*e[5mC]*d[5mC]*dA*dA*dT*dG*dA*dT*dG*dG*dA*eG*e[5mC]*e[5mC]*eT*e[5mC]) [compound 412234] — higher, 60%
- 412235 (antisense eA*eT*eA*eT*e[5mC]*d[5mC]*dA*d[5mC]*dT*dG*dG*dT*dT*dT*d[5mC]*e[5mC]*eA*eA*eT*eG) [compound 412235] — higher, 57%
- 412236 (antisense e[5mC]*e[5mC]*eA*eT*eA*dG*dA*dA*dA*d[5mC]*dA*dG*dT*dG*dA*eG*e[5mC]*eG*eG*e[5mC]) [compound 412236] — higher, 72%
- 412237 (antisense eT*eG*eA*e[5mC]*eT*d[5mC]*dT*dA*d[5mC]*d[5mC]*d[5mC]*d[5mC]*dA*dT*dA*eG*eA*eA*eA*e[5mC]) [compound 412237] — lower, 48%
- 412238 (antisense e[5mC]*eG*e[5mC]*eA*eA*dA*dA*dT*d[5mC]*dT*dT*dA*dG*dG*dT*eG*eA*e[5mC]*eT*e[5mC]) [compound 412238] — higher, 71%
- 412239 (antisense eT*eT*e[5mC]*eA*eG*dA*dT*dT*dG*dA*dT*dT*dT*dA*dA*eA*eA*eT*eG*e[5mC]) [compound 412239] — lower, 43%
- 412240 (antisense eT*eG*eA*eA*e[5mC]*d[5mC]*d[5mC]*d[5mC]*dA*dA*dA*dG*dA*dA*dA*eG*eA*eT*eG*eT) [compound 412240] — lower, 32%
- 412241 (antisense eT*eA*eT*eT*eA*dT*dT*dT*d[5mC]*dT*dT*dG*dA*dA*d[5mC]*e[5mC]*e[5mC]*e[5mC]*eA*eA) [compound 412241] — lower, 41%
- 412243 (antisense eT*eT*e[5mC]*e[5mC]*eA*dG*dT*dT*dT*d[5mC]*dA*dA*d[5mC]*dA*dA*eG*eG*e[5mC]*eA*eA) [compound 412243] — higher, 70%
- 412244 (antisense eG*eA*eA*eG*eG*d[5mC]*dA*dG*dG*d[5mC]*dA*dT*dA*dT*dG*eG*eG*eT*e[5mC]*eG) [compound 412244] — higher, 53%
- 412245 (antisense eG*eT*e[5mC]*eA*e[5mC]*dT*dA*dA*dG*dG*dG*dT*dA*dT*d[5mC]*eT*eT*eG*eG*e[5mC]) [compound 412245] — higher, 75%
- 412246 (antisense eA*eG*eA*eT*e[5mC]*dA*dT*d[5mC]*dT*dT*dA*dT*dG*dG*dG*eT*eT*eA*eT*eT) [compound 412246] — higher, 68%
- 412247 (antisense eT*eA*eG*e[5mC]*e[5mC]*dG*dG*d[5mC]*dA*d[5mC]*dA*dG*dA*dT*d[5mC]*eA*eT*e[5mC]*eT*eT) [compound 412247] — higher, 75%
- 412248 (antisense e[5mC]*e[5mC]*eA*eG*eA*dT*dG*d[5mC]*d[5mC]*dA*dG*dA*d[5mC]*d[5mC]*dT*e[5mC]*eA*eT*eT*eG) [compound 412248] — higher, 53%
- 412249 (antisense e[5mC]*eA*eT*eT*e[5mC]*dA*d[5mC]*dA*d[5mC]*dT*dG*d[5mC]*dT*dT*dG*eA*eG*eT*eT*eT) [compound 412249] — higher, 55%
- 412250 (antisense eT*eG*eG*e[5mC]*eA*d[5mC]*dA*dG*dT*dG*dA*dA*d[5mC]*dT*d[5mC]*eA*eA*e[5mC]*eA*e[5mC]) [compound 412250] — higher, 63%
- 412251 (antisense e[5mC]*eT*eA*eG*e[5mC]*dA*dT*dT*dT*dT*d[5mC]*dT*dT*dA*d[5mC]*eA*eA*eA*e[5mC]*eA) [compound 412251] — higher, 58%
- 412252 (antisense eT*eT*eA*eT*eG*dG*dT*dA*dA*dT*dT*d[5mC]*dT*dT*dG*eG*eA*e[5mC]*eT*e[5mC]) [compound 412252] — lower, 39%
- 412253 (antisense eA*eA*eA*eT*eA*dT*dT*dG*d[5mC]*d[5mC]*dT*dT*dA*dT*dG*eG*eT*eA*eA*eT) [compound 412253] — lower, 20%
- 412254 (antisense eT*eA*eT*e[5mC]*eT*dG*d[5mC]*d[5mC]*dT*dA*dT*dA*dT*dA*dG*eT*eA*eA*eT*e[5mC]) [compound 412254] — lower, 16%
- 412255 (antisense eG*e[5mC]*e[5mC]*eA*e[5mC]*dT*dA*d[5mC]*dT*dT*dG*dG*dT*dT*dA*eT*eT*eT*eT*e[5mC]) [compound 412255] — lower, 38%
- 412256 (antisense eA*eA*e[5mC]*eA*eA*dA*dT*d[5mC]*dT*dA*dT*dT*dT*dA*dT*eG*eG*eT*eG*eG) [compound 412256] — lower, 39%
- 412257 (antisense e[5mC]*eT*eG*e[5mC]*eA*dA*dA*dA*dT*dG*dG*dT*dG*dA*dA*eG*eA*e[5mC]*eT*eG) [compound 412257] — higher, 57%
- 412258 (antisense eG*eT*eG*eT*eA*dG*dA*dT*dT*d[5mC]*d[5mC]*dT*dG*d[5mC]*dA*eA*eA*eA*eT*eG) [compound 412258] — lower, 44%
- 412259 (antisense eT*eT*eT*eT*e[5mC]*dA*dG*dG*dA*dA*dA*dG*dT*dG*dT*eA*eT*e[5mC]*eT*eT) [compound 412259] — lower, 37%
- 412260 (antisense e[5mC]*eA*e[5mC]*eA*eA*dA*dT*d[5mC]*dA*dT*dT*dT*dT*dT*d[5mC]*eA*eG*eG*eA*eA) [compound 412260] — lower, 27%
- 412261 (antisense eT*e[5mC]*e[5mC]*e[5mC]*eA*dA*dG*dA*dT*dA*dT*dT*dT*dT*dA*eA*eA*eT*eA*eA) [compound 412261] — lower, 3%
- 412262 (antisense eA*eA*eT*eG*eA*dG*dA*dT*dA*dA*dA*dT*dA*dT*dT*eT*eG*e[5mC]*eA*e[5mC]) [compound 412262] — lower, 34%
- 412263 (antisense eT*eG*eA*eA*eA*dG*d[5mC]*dT*dA*dT*dG*dT*dG*dG*dT*eG*eA*e[5mC]*eA*eA) [compound 412263] — lower, 33%
- 412264 (antisense e[5mC]*eA*e[5mC]*eA*e[5mC]*dT*dT*dG*dA*dT*dG*dA*dA*dT*dT*eG*eT*eA*eT*eA) [compound 412264] — lower, 27%
- 413460 (antisense eT*eA*e[5mC]*e[5mC]*eT*dT*dG*dA*dG*dA*dG*dA*dA*dT*dT*eG*e[5mC]*eT*eT*eG) [compound 413460] — lower, 40%
- 413461 (antisense eG*eT*e[5mC]*eA*eG*dA*dA*dA*dT*dA*dT*dA*d[5mC]*d[5mC]*dT*eT*eG*eA*eG*eA) [compound 413461] — lower, 39%
- 413462 (antisense eA*eT*e[5mC]*eT*eT*dA*dG*dT*dA*dT*dG*dT*d[5mC]*dA*dG*eA*eA*eA*eT*eA) [compound 413462] — lower, 12%
- 413463 (antisense eG*eA*eG*eT*e[5mC]*dA*d[5mC]*dA*d[5mC]*dA*dT*dT*d[5mC]*dA*d[5mC]*e[5mC]*eA*eG*eA*eA) [compound 413463] — higher, 74%
- 413464 (antisense eG*eT*eG*eA*eG*d[5mC]*dA*dT*dT*dG*d[5mC]*dT*dT*dG*dA*eA*eA*eG*eA*eA) [compound 413464] — lower, 42%
- 413465 (antisense e[5mC]*eT*eT*eA*eT*dT*dT*dG*dG*dT*dG*dT*dG*dA*dG*e[5mC]*eA*eT*eT*eG) [compound 413465] — higher, 80%
- 413466 (antisense eA*e[5mC]*eA*eT*eA*dA*dA*dT*dG*dT*d[5mC]*dT*dT*dT*dG*eT*eT*eG*e[5mC]*eA) [compound 413466] — higher, 79%
- 413470 (antisense eG*eT*eT*eA*eT*dA*dG*dT*dT*dT*dA*dT*dG*d[5mC]*d[5mC]*e[5mC]*eT*eT*e[5mC]*eA) [compound 413470] — higher, 72%
- 413471 (antisense eT*e[5mC]*eA*eG*eT*dA*dG*dA*d[5mC]*dA*dA*dA*dT*dG*dT*eT*eA*e[5mC]*eG*eA) [compound 413471] — higher, 67%
